In PubChem BioAssay (NCI):
Values joined by “and” are separate entries in the source; they are usually repeats but may differ in a detail not shown here. Identical values can stand only once.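 All cell lines were grown in 96-well plates and treated with compound for 48 hours. GI50 = concentration required for 50% inhibition of growth. TGI marks complete inhibition of growth.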

Assays:
Experiment in all cases: NCI tumour cell line growth inhibition, 48 h
MCF7 breast = test system: MCF7 breast
SK-MEL-5 melanoma = test system: SK-MEL-5 melanoma
HL-60(TB) leukemia = test system: HL-60(TB) leukemia
MOLT-4 leukemia = test system: MOLT-4 leukemia
MDA-MB-435 = test system: MDA-MB-435
SNB-19 CNS = test system: SNB-19 CNS
A549 NSCLC = test system: A549 NSCLC
OVCAR-5 ovarian = test system: OVCAR-5 ovarian
KM12 colon = test system: KM12 colon
SF-295 CNS = test system: SF-295 CNS

| SMILES | GI50 (MCF7 breast) [µM] | TGI (MCF7 breast) [µM] | GI50 (SK-MEL-5 melanoma) [µM] | TGI (SK-MEL-5 melanoma) [µM] | GI50 (HL-60(TB) leukemia) [µM] | TGI (HL-60(TB) leukemia) | GI50 (MOLT-4 leukemia) [µM] | TGI (MOLT-4 leukemia) [µM] | GI50 (MDA-MB-435) [µM] | TGI (MDA-MB-435) [µM] | GI50 (SNB-19 CNS) [µM] | TGI (SNB-19 CNS) [µM] | GI50 (A549 NSCLC) [µM] | TGI (A549 NSCLC) [µM] | GI50 (OVCAR-5 ovarian) [µM] | TGI (OVCAR-5 ovarian) [µM] | GI50 (KM12 colon) [µM] | TGI (KM12 colon) [µM] | GI50 (SF-295 CNS) [µM] | TGI (SF-295 CNS) [µM] |
| --- | --- | --- | --- | --- | --- | --- | --- | --- | --- | --- | --- | --- | --- | --- | --- | --- | --- | --- | --- | --- |
| Cc1ccc(OCCCCCCNCCO)c(C)c1 | 13.9 | 28.7 | 10.4 | 22.4 | 0.323 | 1.45 µM | 16.3 | 36.8 | 12.3 | 28.1 | 14.3 | 31 | 17.8 | 34.8 | 13.7 | 28 | 17.2 | 32.4 | 17.8 | 39 |
| COc1cc(C(=O)N/N=C/c2cccc([N+](=O)[O-])c2)cc(OC)c1OC | 4.49 | > 100 | 2.76 | > 100 | 0.762 | 10.2 µM | 3.98 | > 100 | 1.09 | 3.88 | 55.1 | > 100 | 8.02 | > 100 | 39.7 | > 100 | 2.41 | > 100 | 2.75 | 29.2 |
| O=c1[nH]c2cc(O)ccc2n2cc3c(F)cccc3c12 | 0.936 | > 100 | 0.348 | > 100 | 6.55 | > 100 µM | 2.16 | > 100 | 0.278 | > 100 | 3.33 | > 100 | 1.31 | > 100 | > 31.3 | > 100 | 1.86 | > 100 | 2.85 | > 100 |
| Cn1c(COC(=O)NCCN2CCOCC2)nc2c(N3CCOCC3)nc(-c3ccccc3)nc21 | 0.47 | 2.18 | 1.64 | 3.05 | 0.521 | 4.03 µM | 0.972 | 5.96 | 1.07 | 2.47 | 1.57 | 3.31 | 1.39 | 3.73 | 1.6 | 3.66 | 1.53 | 3.4 | 2.09 | 5.99 |
| CN1CC(C(=O)NC2(C)OC3(O)C4CCCN4C(=O)C(Cc4ccccc4)N3C2=O)C=C2c3cccc4[nH]cc(c34)CC21 (stereo unspecified) | – | > 100 | – | 30.6 | – | 39.1 µM | – | > 100 | – | 50.7 | – | > 100 | – | > 100 | – | 44.9 | – | 99.6 | – | 57.1 |
| CN1CCN(C(=S)SCN2C(=O)c3ccccc3S2(=O)=O)CC1 | 8.29 | > 100 | 16.1 | 38.9 | 0.492 | 20.3 µM | 5.08 | 25.7 | 28.2 | 99.4 | > 100 | > 100 | 28.3 | > 100 | 30.2 | > 100 | 25.3 | > 100 | > 100 | > 100 |
| O=[N+]([O-])c1cccc(-c2ncc(-c3ccc(Cl)cc3Cl)[nH]2)c1 | 1.14 | 3.57 | 4.59 | 9.23 | 3.8 | 17.3 µM | 2.49 | 6.34 | 3.62 | 12.2 | 7.85 | 23.2 | 22 | > 56.9 | 8.07 | 23.1 | 1.75 | 3.41 | 2.14 | 5.28 |
| O=C(CN=Cc1cccs1)CSC(c1ccccc1)c1ccccc1 | 18.8 | 52.6 | 15.6 | 29 | 18.9 | 41.9 µM | 18.5 | 69.1 | 17.7 | 36.3 | 32.5 | > 100 | 21.7 | 76.1 | 44.3 | > 100 | 21 | 52.5 | 35.1 | > 100 |
| CN(C)c1ccc(Sc2ccc3nc(N)nc(N)c3c2)cc1 | 1.14 | 13.4 | 0.503 | 4.78 | 0.444 | 2.2 µM | 0.635 | 16 | 0.542 | 14.2 | 1.2 | 17.7 | 0.139 | 12 | 1.16 | 21 | 1.16 | 12.2 | 0.537 | 14.1 |
| CC(C)(C)c1ccc(S(=O)(=O)N[C@H]2CC[C@H]3[C@@H]4CCc5cc(O)ccc5[C@H]4CC[C@]23C)cc1 | 1.74 | 3.57 | 1.65 | 3.05 | 2.31 | 6.11 µM | 2.46 | 9.53 | 1.79 | 3.33 | 3.54 | 18 | 2.14 | 7.24 | 2.08 | 4.2 | 1.93 | 3.87 | 1.66 | 3.16 |
| C[C@H](NC(=O)CCC(F)(F)F)C(=O)N[C@@H]1C(=O)N(CCO)c2ncccc2-c2ccccc21 | > 100 | > 100 | > 100 | > 100 | > 100 | > 100 µM | > 100 | > 100 | > 100 | > 100 | > 100 | > 100 | > 100 | > 100 | > 100 | > 100 | > 100 | > 100 | > 100 | > 100 |
| COc1cc2c(cc1OC)[C@H]1C(=O)c3cc4c(cc3[C@H]1N(C)C2=O)OCO4 | – | > 100 | – | > 48.8 | – | > 68.6 µM | – | 5.7 | – | > 100 | – | > 100 | – | > 100 | – | > 100 | – | > 100 | – | > 69.9 |
| CC(C)n1nc(C#Cc2cccc(NC(=O)c3cccc(C(F)(F)F)c3)c2)c2c(N)ncnc21 | 7.5 | > 100 | 2.55 | 30.8 | 0.156 | > 100 µM | 1.36 | 61.3 | 1.67 | > 100 | 4.21 | > 100 | 3.29 | 64.4 | 1.36 | 27.7 | 3.41 | > 100 | 2.88 | > 100 |
| N#CC1(C#N)C2C=CC(C3CCC=C32)C1(C#N)C#N (stereo unspecified) | – | > 10 | – | > 10 | – | 3.81 µM | – | 6.52 | – | > 10 | – | > 10 | – | > 10 | – | > 10 | – | > 10 | – | > 10 |
| COC(=O)Nc1nc2ccc(Sc3ccc(NC(=O)Nc4cc(C(F)(F)F)ccc4F)cc3)cc2[nH]1 | 0.988 | 5.33 | 0.95 | 11.7 | 1.46 | 12.3 µM | 3.26 | 17 | 0.605 | 2.71 | 6.98 | 25 | 3.01 | 7.06 | 3.5 | 9.24 | 0.113 | 3.99 | 1.96 | 7.52 |
| CC(=O)Nc1ccc(-n2cnc3cc(-c4ccc(OCCN5CCCCC5)cc4)ccc32)cc1 | 4.16 | 13.6 | 5.22 | 9.72 | 5.26 | 18.2 µM | 5.71 | 25 | 5.81 | 10.4 | 8.53 | 33.1 | 1.4 | 5.74 | 6.22 | 14.6 | 0.358 | 5.76 | 5.5 | 10.6 |
| Cc1cc2c(cc1Cl)SC1=NN(C)C(c3ccccc3O)N1S2(=O)=O (stereo unspecified) | > 100 | > 100 | 57 | > 100 | > 100 | > 100 µM | > 100 | > 100 | > 100 | > 100 | 86.7 | > 100 | 86.2 | > 100 | 60 | > 100 | 57.7 | > 100 | 43.6 | > 100 |
| COc1cc(/C=C\c2cccnc2Nc2ccccc2)cc(OC)c1OC | 3.97 | 44.7 | 4.17 | 16.4 | 8 | 36.7 µM | 6.72 | 46.2 | 5.63 | 43.3 | 6.8 | > 100 | 4.21 | > 100 | 16.3 | > 100 | 6.5 | > 100 | 4.92 | 35.9 |
| C#Cc1cccc(Nc2ncnc3ccc(-c4cncc(NS(C)(=O)=O)c4)cc23)c1 | 1.5 | 8.71 | 1.63 | 3.06 | 1.87 | 6.83 µM | 1.41 | 4.45 | 2.94 | 13.7 | 1.98 | 16.2 | 3.63 | 14.9 | 1.07 | 16.5 | 2.33 | 6.52 | 2.47 | 10.5 |
| CCN(CC)CCOc1ccc(C2=C(c3ccccc3)CCc3cc(OC)ccc32)cc1 | 0.547 | 2.62 | 0.811 | 2.29 | 8.99 | 26 µM | 4.64 | 21.3 | 1.48 | 3.4 | 2.38 | 7.42 | 4.02 | 16.2 | 2.31 | 5.52 | 2.46 | 6.85 | 1.59 | 3.27 |
| C[C@]12CC[C@@H]3c4ccc(O)cc4CC[C@H]3[C@@H]1CC[C@@H]2NS(=O)(=O)c1ccc(-c2ccccc2)cc1 | 3.56 | 11.2 | 1.71 | 3.26 | 6.26 | 47.6 µM | 3.47 | > 100 | 3.21 | 12.3 | 4.92 | > 100 | 3.26 | > 100 | 4.76 | 19.2 | 3.81 | 18.4 | 3.06 | 13.2 |
| COc1cc(C2c3cc4c(cc3[C@@H](Nc3cccc(O)c3)C3COC(=O)[C@H]23)OCO4)cc(OC)c1O (stereo partly specified) | – | 28.4 | 0.526 | 6.45 | 0.23 | 0.802 µM and 2.73 µM | 0.1 | 0.911 | – | 18.8 | 0.949 | 24.9 | 0.579 | 7.03 | – | 22.7 | – | 11.6 | 0.585 | 8.07 |
